In ChEMBL document CHEMBL5316290, “Targeted Protein Degradation Induced by HEMTACs Based on HSP90” (J Med Chem, 2023):
Active and inactive are the calls of the source. The rule behind the calls is not given here.

What was measured:
[1] = molecular target: T1, HSP90/Cyclin-dependent kinase 6 (Mus musculus) (UniProt P07901+Q64261+P11499); test: HEMTAC activity at HSP90/CDK6 in mouse B16-F10 cells assessed as reduction in CDK6 protein level at 0.5 uM incubated for 24 hrs by global proteomics analysis; assay type: cell-based
[2] = molecular target: T2, HSP90/Cyclin-dependent kinase 4 (Mus musculus) (UniProt P30285+P07901+P11499); test: HEMTAC activity at HSP90/CDK4 in mouse B16-F10 cells assessed as induction of CDK4 degradation at 0.1 uM incubated for 24 hrs in presence of palbociclib by Western blot analysis; assay type: cell-based
A-375 = test: Cytotoxicity against human A-375 cells assessed as inhibition of cell growth incubated for 72 hrs by CCK-8 assay; assay type: functional, cell-based; settings: A-375, 72 h
[3] = molecular target: HSP90/Cyclin-dependent kinase 6 (Mus musculus, UniProt P07901+P11499+Q64261); test: HEMTAC activity at HSP90/CDK6 in mouse B16-F10 cells assessed as induction of […] degradation incubated for 24 hrs by Western blot analysis; assay type: cell-based
B16-F10 [4] = test: Induction of apoptosis in mouse B16-F10 cells assessed as live cells at 250 nM incubated for 48 hrs by Annexin V-FITC/PI staining based flow cytometry analysis (reference value: 92.85 %); assay type: functional
[5] = molecular target: Heat shock protein HSP 90-alpha (Homo sapiens, UniProt P07900); test: Binding affinity to CM5 sensor chip immobilized human HSP90alpha assessed as dissociation constant by SPR analysis
B16-F10 [6] = test: Induction of apoptosis in mouse B16-F10 cells assessed as late apoptotic cells at 125 nM incubated for 48 hrs by Annexin V-FITC/PI staining based flow cytometry analysis (reference value: 1.97%); assay type: functional
Lung = test: Downregulation of CDK4/6 protein level in lung of C57BL/6J mouse implanted with mouse B16-F10 cells at 20 mg/kg, ip administered once daily for 2 weeks and measured every 2 days by immunohistochemical analysis; assay type: functional, organism-based
[7] = molecular target: T2, HSP90/Cyclin-dependent kinase 4 (Mus musculus); test: HEMTAC activity at HSP90/CDK4 in mouse B16-F10 cells assessed as reduction in CDK4 protein level at 0.5 uM incubated for 24 hrs by global proteomics analysis; assay type: cell-based
[8] = molecular target: HSP90/Cyclin-dependent kinase 4 (Mus musculus, UniProt P07901+P11499+P30285); test: HEMTAC activity at HSP90/CDK4 in mouse B16-F10 cells assessed as induction of CDK4 degradation incubated for 24 hrs by Western blot analysis; assay type: cell-based
[9] = Acute toxicity in zebra fish embryos incubated for 72 hrs; parameters: species or system Danio rerio; settings: zebrafish
B16-F10 [10] = test: Anticancer activity against mouse B16-F10 cells xenografted in zebra fish embryos assessed as inhibition of cell growth at 1 uM measured at 6 days post fertilization; assay type: functional, cell-based; settings: time 6.0 day
[11] = molecular target: T1, HSP90/Cyclin-dependent kinase 6 (Mus musculus); test: HEMTAC activity at HSP90/CDK6 in mouse B16-F10 cells assessed as induction of […] degradation at 0.5 uM measured after 12 hrs by Western blot analysis; assay type: cell-based
B16-F10 [12] = test: Induction of cell cycle arrest in mouse B16-F10 cells assessed as accumulation of cells at S phase at 125 nM incubated for 24 hrs by RNase/PI staining based flow cytometry analysis (reference value: 12.45%); assay type: functional

COc1c(C)cnc(Cn2cc(C#CCCn3cc(CNC(=O)CN4CCN(c5ccc(Nc6ncc7c(C)c(C(C)=O)c(=O)n(C8CCCC8)c7n6)nc5)CC4)nn3)c3c(Cl)nc(N)nc32)c1C
Activity [1]: Active
Activity [2]: inactive
IC50 (A-375): 126 nM
EC50 [3]: 19 nM
Activity (B16-F10 [4]): 62.24%
Kd [5]: 357 nM
Activity (B16-F10 [6]): 11.55%
Activity (Lung): inactive
Activity [7]: Active
EC50 [8]: 26 nM
LC50 at 72 h [9]: > 100000 nM
inhibition (B16-F10 [10]): Active
Activity [11]: Active
Activity (B16-F10 [12]): 7.58%
